In PubChem BioAssay AID1259407 (Chemical Carcinogenesis Research Information System (CCRIS), 2018):
Activity calls are given as the source filed them. How the calls were made is not given here.

Tested on: CCRIS mutagenicity, Ames/micronucleus/aberration tests
Experiment: CCRIS mutagenicity studies
[1] = Test System: AMES SALMONELLA TYPHIMURIUM, Strain/Indicator: TA100, Metabolic Activation: NONE, Method: STANDARD PLATE
[2] = Test System: UDS RAT HEPATOCYTES, Strain/Indicator: THY INCORP, Metabolic Activation: NONE, Method: AUTORADIOGRAPHY
[3] = Test System: AMES SALMONELLA TYPHIMURIUM, Strain/Indicator: TA98, Metabolic Activation: NONE, Method: PREINCUBATION
[4] = Test System: AMES SALMONELLA TYPHIMURIUM, Strain/Indicator: TA100, Metabolic Activation: NONE, Method: PREINCUBATION
[5] = Test System: AMES SALMONELLA TYPHIMURIUM, Strain/Indicator: TA1535, Metabolic Activation: NONE, Method: PREINCUBATION
[6] = Test System: AMES SALMONELLA TYPHIMURIUM, Strain/Indicator: TA1537, Metabolic Activation: NONE, Method: PREINCUBATION

CCCC(=O)OCCC(C)C
mutagenic call (Test System: AMES SALMONELLA TYPHIMURIUM, Strain/Indicator: TA97, Metabolic Activation: NONE, Method: PREINCUBATION): inactive; negative
mutagenic call (Test System: AMES SALMONELLA TYPHIMURIUM, Strain/Indicator: TA97, Metabolic Activation: RAT, LIVER, S-9, AROCLOR 1254, Method: PREINCUBATION): inactive; negative
mutagenic call (Test System: AMES SALMONELLA TYPHIMURIUM, Strain/Indicator: TA102, Metabolic Activation: NONE, Method: PREINCUBATION): inactive; negative
mutagenic call (Test System: AMES SALMONELLA TYPHIMURIUM, Strain/Indicator: TA102, Metabolic Activation: RAT, LIVER, S-9, AROCLOR 1254, Method: PREINCUBATION): inactive; negative

N#C/C(=C/C=C/c1ccccc1[N+](=O)[O-])c1ccc(Br)cc1
mutagenic call (Test System: AMES SALMONELLA TYPHIMURIUM, Strain/Indicator: TA97A, Metabolic Activation: NONE, Method: STANDARD PLATE): active; positive
mutagenic call [1]: active; positive

C[C@@H]1C[C@@]2(O[C@H]2C)C(=O)O[C@@H]2CCN3CC=C(COC(=O)[C@]1(C)O)[C@H]23
mutagenic call [2]: active; positive

CCOc1cccc([N+](=O)[O-])c1
mutagenic call [3]: inactive; negative
mutagenic call (Test System: AMES SALMONELLA TYPHIMURIUM, Strain/Indicator: TA98, Method: PREINCUBATION): inactive; negative
mutagenic call [4]: inactive; negative
mutagenic call (Test System: AMES SALMONELLA TYPHIMURIUM, Strain/Indicator: TA100, Method: PREINCUBATION): inactive; negative
mutagenic call [5]: inactive; negative
mutagenic call (Test System: AMES SALMONELLA TYPHIMURIUM, Strain/Indicator: TA1535, Method: PREINCUBATION): inactive; negative
mutagenic call [6]: inactive; negative
mutagenic call (Test System: AMES SALMONELLA TYPHIMURIUM, Strain/Indicator: TA1537, Method: PREINCUBATION): inactive; negative
mutagenic call (Test System: AMES SALMONELLA TYPHIMURIUM, Strain/Indicator: TA1538, Metabolic Activation: NONE, Method: PREINCUBATION): inactive; negative
mutagenic call (Test System: AMES SALMONELLA TYPHIMURIUM, Strain/Indicator: TA1538, Method: PREINCUBATION): inactive; negative

C=CC[N+](C)(C)CC=C
mutagenic call [3]: inactive; negative
mutagenic call (Test System: AMES SALMONELLA TYPHIMURIUM, Strain/Indicator: TA98, Metabolic Activation: RAT LIVER S-9, PHENOBARBITAL AND BETA-NAPHTHOFLAVONE, Method: PREINCUBATION): inactive; negative
mutagenic call [4]: inactive; negative
mutagenic call (Test System: AMES SALMONELLA TYPHIMURIUM, Strain/Indicator: TA100, Metabolic Activation: RAT LIVER S-9, PHENOBARBITAL AND BETA-NAPHTHOFLAVONE, Method: PREINCUBATION): inactive; negative
mutagenic call [5]: inactive; negative
mutagenic call (Test System: AMES SALMONELLA TYPHIMURIUM, Strain/Indicator: TA1535, Metabolic Activation: RAT LIVER S-9, PHENOBARBITAL AND BETA-NAPHTHOFLAVONE, Method: PREINCUBATION): inactive; negative
mutagenic call [6]: inactive; negative
mutagenic call (Test System: AMES SALMONELLA TYPHIMURIUM, Strain/Indicator: TA1537, Metabolic Activation: RAT LIVER S-9, PHENOBARBITAL AND BETA-NAPHTHOFLAVONE, Method: PREINCUBATION): inactive; negative
mutagenic call (Test System: E.COLI, Strain/Indicator: WP2UVRA/PKM101, Metabolic Activation: NONE, Method: PREINCUBATION): inactive; negative
mutagenic call (Test System: E.COLI, Strain/Indicator: WP2UVRA/PKM101, Metabolic Activation: RAT LIVER S-9, PHENOBARBITAL AND BETA-NAPHTHOFLAVONE, Method: PREINCUBATION): inactive; negative

C=CCOc1ccccc1OCC(O)CNC(C)C (stereo not drawn)
mutagenic call (Test System: AMES SALMONELLA TYPHIMURIUM, Strain/Indicator: TA98, Metabolic Activation: NONE): inactive; negative
mutagenic call (Test System: AMES SALMONELLA TYPHIMURIUM, Strain/Indicator: TA98, Metabolic Activation: NONE, Method: STANDARD PLATE): inactive; negative
mutagenic call (Test System: AMES SALMONELLA TYPHIMURIUM, Strain/Indicator: TA98, Metabolic Activation: RAT, LIVER, S-9, AROCLOR 1254): inactive; negative
mutagenic call (Test System: AMES SALMONELLA TYPHIMURIUM, Strain/Indicator: TA98, Metabolic Activation: RAT, LIVER, S-9, AROCLOR 1254, Method: STANDARD PLATE): inactive; negative
mutagenic call (Test System: AMES SALMONELLA TYPHIMURIUM, Strain/Indicator: TA100, Metabolic Activation: NONE): inactive; negative
mutagenic call [1]: inactive; negative
mutagenic call (Test System: AMES SALMONELLA TYPHIMURIUM, Strain/Indicator: TA100, Metabolic Activation: RAT, LIVER, S-9, AROCLOR 1254): inactive; negative
mutagenic call (Test System: AMES SALMONELLA TYPHIMURIUM, Strain/Indicator: TA100, Metabolic Activation: RAT, LIVER, S-9, AROCLOR 1254, Method: STANDARD PLATE): inactive; negative
mutagenic call (Test System: AMES SALMONELLA TYPHIMURIUM, Strain/Indicator: TA1535, Metabolic Activation: NONE): inactive; negative
mutagenic call (Test System: AMES SALMONELLA TYPHIMURIUM, Strain/Indicator: TA1535, Metabolic Activation: RAT, LIVER, S-9, AROCLOR 1254): inactive; negative
mutagenic call (Test System: AMES SALMONELLA TYPHIMURIUM, Strain/Indicator: TA1537, Metabolic Activation: NONE): inactive; negative
mutagenic call (Test System: AMES SALMONELLA TYPHIMURIUM, Strain/Indicator: TA1537, Metabolic Activation: RAT, LIVER, S-9, AROCLOR 1254): inactive; negative
mutagenic call (Test System: CHINESE HAMSTER V-79, Strain/Indicator: V-79/6-THIOGUANINE, Metabolic Activation: NONE, Method: REPLATING): inactive; negative
mutagenic call (Test System: CHINESE HAMSTER V-79, Strain/Indicator: V-79/6-THIOGUANINE, Metabolic Activation: RAT, HEPATOCYTES, Method: REPLATING): inactive; negative
mutagenic call (Test System: UDS HUMAN HEPATOCYTES, Strain/Indicator: THY INCORP, Metabolic Activation: NONE, Method: AUTORADIOGRAPHY): inactive; negative
mutagenic call [2]: inactive; negative
